Results published in PubChem BioAssay (NCI).
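Each compound was tested at five concentrations against cells in 96-well plates for 48 hours. GI50: concentration for 50% inhibition of growth. TGI marks complete inhibition of growth.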

Columns and labels:
Assay in all cases: NCI tumour cell line growth inhibition, 48 h
HCT-116 colon = test system: HCT-116 colon
PC-3 prostate = test system: PC-3 prostate
SK-MEL-28 melanoma = test system: SK-MEL-28 melanoma
MDA-MB-231 breast = test system: MDA-MB-231 breast
ACHN renal = test system: ACHN renal
SNB-75 CNS = test system: SNB-75 CNS
NCI-H226 lung = test system: NCI-H226 lung
KM12 colon = test system: KM12 colon
SF-268 CNS = test system: SF-268 CNS
M14 melanoma = test system: M14 melanoma
HCC-2998 colon = test system: HCC-2998 colon
SK-MEL-5 melanoma = test system: SK-MEL-5 melanoma
HCT-15 colon = test system: HCT-15 colon
RPMI-8226 leukemia = test system: RPMI-8226 leukemia
SF-295 CNS = test system: SF-295 CNS
786-0 renal = test system: 786-0 renal
EKVX NSCLC = test system: EKVX NSCLC
A498 renal = test system: A498 renal
A549 NSCLC = test system: A549 NSCLC
NCI-H460 lung = test system: NCI-H460 lung
U251 CNS = test system: U251 CNS
MCF7 breast = test system: MCF7 breast
NCI-H23 lung = test system: NCI-H23 lung
SW-620 colon = test system: SW-620 colon
HT29 colon = test system: HT29 colon
DU-145 prostate = test system: DU-145 prostate
UACC-257 melanoma = test system: UACC-257 melanoma
CAKI-1 renal = test system: CAKI-1 renal
OVCAR-5 ovarian = test system: OVCAR-5 ovarian
MOLT-4 leukemia = test system: MOLT-4 leukemia
K-562 leukemia = test system: K-562 leukemia
SK-MEL-2 melanoma = test system: SK-MEL-2 melanoma
NCI/ADR-RES ovarian = test system: NCI/ADR-RES ovarian
CCRF-CEM leukemia = test system: CCRF-CEM leukemia
COLO 205 colon = test system: COLO 205 colon
OVCAR-8 ovarian = test system: OVCAR-8 ovarian
NCI-H522 lung = test system: NCI-H522 lung
UO-31 renal = test system: UO-31 renal
HL-60(TB) leukemia = test system: HL-60(TB) leukemia
SR leukemia = test system: SR leukemia
IGROV1 ovarian = test system: IGROV1 ovarian
MDA-MB-435 = test system: MDA-MB-435
UACC-62 melanoma = test system: UACC-62 melanoma
SN12C renal = test system: SN12C renal
BT-549 breast = test system: BT-549 breast
LOX IMVI melanoma = test system: LOX IMVI melanoma
OVCAR-3 ovarian = test system: OVCAR-3 ovarian
HOP-92 NSCLC = test system: HOP-92 NSCLC
SNB-19 CNS = test system: SNB-19 CNS
HOP-62 NSCLC = test system: HOP-62 NSCLC
TK-10 renal = test system: TK-10 renal
OVCAR-4 ovarian = test system: OVCAR-4 ovarian
HS 578T breast = test system: HS 578T breast

Q: What does the source list for `COc1ccc(/C=C(/C(=O)N2CCCCC2)c2cc(OC)c(OC)c(OC)c2)cc1`?
A: GI50 (HCT-116 colon): 0.379 µM; TGI (HCT-116 colon): > 100 µM; GI50 (PC-3 prostate): 0.527 µM; TGI (PC-3 prostate): > 100 µM; GI50 (SK-MEL-28 melanoma): 8.89 µM; TGI (SK-MEL-28 melanoma): > 100 µM; GI50 (MDA-MB-231 breast): 4.54 µM; TGI (MDA-MB-231 breast): > 100 µM; GI50 (ACHN renal): 0.713 µM; TGI (ACHN renal): > 100 µM; GI50 (SNB-75 CNS): 0.483 µM; TGI (SNB-75 CNS): > 100 µM; GI50 (NCI-H226 lung): 3.4 µM; TGI (NCI-H226 lung): > 100 µM; GI50 (KM12 colon): 0.482 µM; TGI (KM12 colon): > 100 µM; GI50 (SF-268 CNS): 1.79 µM; TGI (SF-268 CNS): > 100 µM; GI50 (M14 melanoma): 0.478 µM; TGI (M14 melanoma): > 100 µM; GI50 (HCC-2998 colon): 2.82 µM; TGI (HCC-2998 colon): > 100 µM; GI50 (SK-MEL-5 melanoma): 0.753 µM; TGI (SK-MEL-5 melanoma): 43.9 µM; GI50 (HCT-15 colon): 0.579 µM; TGI (HCT-15 colon): > 100 µM; GI50 (RPMI-8226 leukemia): 4.13 µM; TGI (RPMI-8226 leukemia): > 100 µM; GI50 (SF-295 CNS): 0.422 µM; TGI (SF-295 CNS): > 100 µM; GI50 (786-0 renal): 0.404 µM; TGI (786-0 renal): > 100 µM; GI50 (EKVX NSCLC): 3.4 µM; TGI (EKVX NSCLC): > 100 µM; GI50 (A498 renal): 0.682 µM; TGI (A498 renal): 71.7 µM; GI50 (A549 NSCLC): 1.5 µM; TGI (A549 NSCLC): > 100 µM; GI50 (NCI-H460 lung): 0.497 µM; TGI (NCI-H460 lung): > 100 µM; GI50 (U251 CNS): 1.48 µM; TGI (U251 CNS): > 100 µM; GI50 (MCF7 breast): 0.454 µM; TGI (MCF7 breast): > 100 µM; GI50 (NCI-H23 lung): 3.88 µM; TGI (NCI-H23 lung): > 100 µM; GI50 (SW-620 colon): 0.506 µM; TGI (SW-620 colon): > 100 µM; GI50 (HT29 colon): 0.412 µM; TGI (HT29 colon): > 100 µM; GI50 (DU-145 prostate): 1.5 µM; TGI (DU-145 prostate): 17.3 µM; GI50 (UACC-257 melanoma): > 100 µM; TGI (UACC-257 melanoma): > 100 µM; GI50 (CAKI-1 renal): 0.492 µM; TGI (CAKI-1 renal): > 100 µM; GI50 (OVCAR-5 ovarian): 5.26 µM; TGI (OVCAR-5 ovarian): > 100 µM; GI50 (MOLT-4 leukemia): 2.06 µM; TGI (MOLT-4 leukemia): > 100 µM; GI50 (K-562 leukemia): 0.452 µM; TGI (K-562 leukemia): > 100 µM; GI50 (SK-MEL-2 melanoma): 0.967 µM; TGI (SK-MEL-2 melanoma): > 100 µM; GI50 (NCI/ADR-RES ovarian): 1.15 µM; TGI (NCI/ADR-RES ovarian): > 100 µM; GI50 (CCRF-CEM leukemia): 1.17 µM; TGI (CCRF-CEM leukemia): > 100 µM; GI50 (COLO 205 colon): 0.664 µM; TGI (COLO 205 colon): 4.9 µM; GI50 (OVCAR-8 ovarian): 6.12 µM; TGI (OVCAR-8 ovarian): > 100 µM; GI50 (NCI-H522 lung): 1.7 µM; TGI (NCI-H522 lung): > 100 µM; GI50 (UO-31 renal): 4.76 µM; TGI (UO-31 renal): > 100 µM; GI50 (HL-60(TB) leukemia): 0.441 µM; TGI (HL-60(TB) leukemia): 4.1 µM; GI50 (SR leukemia): 0.593 µM; TGI (SR leukemia): > 100 µM; GI50 (IGROV1 ovarian): 0.699 µM; TGI (IGROV1 ovarian): > 100 µM; GI50 (MDA-MB-435): 0.257 µM; TGI (MDA-MB-435): 0.935 µM; GI50 (UACC-62 melanoma): 0.44 µM; TGI (UACC-62 melanoma): > 100 µM; GI50 (SN12C renal): 4.52 µM; TGI (SN12C renal): > 100 µM; GI50 (BT-549 breast): 0.417 µM; TGI (BT-549 breast): 29.9 µM; GI50 (LOX IMVI melanoma): 1.04 µM; TGI (LOX IMVI melanoma): > 100 µM; GI50 (OVCAR-3 ovarian): 0.325 µM; TGI (OVCAR-3 ovarian): 1.52 µM; GI50 (HOP-92 NSCLC): 12.4 µM; TGI (HOP-92 NSCLC): > 100 µM; GI50 (SNB-19 CNS): 0.946 µM; TGI (SNB-19 CNS): > 100 µM; GI50 (HOP-62 NSCLC): 0.911 µM; TGI (HOP-62 NSCLC): > 100 µM; GI50 (TK-10 renal): > 100 µM; TGI (TK-10 renal): > 100 µM; GI50 (OVCAR-4 ovarian): 18 µM; TGI (OVCAR-4 ovarian): > 100 µM; GI50 (HS 578T breast): 0.966 µM; TGI (HS 578T breast): > 100 µM
